# From patent US20190352341A1, “MODIFIED PEPTIDES AND THEIR USE FOR TREATING SYSTEMIC LUPUS ERYTHEMATOSUS” (IMMUPHARMA FRANCE SA, priority 2018, published 2019)
# Where “and” joins values, the source holds several entries; their conditions need not be identical. Identical values can stand only once. Numbered stars: 1 amine (or outer) side, 2 acyl side, 3 side chain; on linkers, the order of the positions; unused ones are H or OH. Square brackets hold non-standard residues; d marks the D form. Peptide text beside a SMILES is read from it. ξ: configuration not given here. X1 = CSCC[C@H](NC(=N)[C@H](Cc1c[nH]cn1)N[*:1])C(=O)[*:2]; pS = N[C@@H](COP(=O)(O)O)C(=O)O; Ile(3ξ) = CCC(C)[C@H](N)C(=O)O
# Columns and labels:
# [1] = Stability of the peptides at 37° C. (HPLC peak area); assay type: physicochemical; conditions: for 95% of stability (predicted): time to 95% from linear equation; for Stability (%) Linear equation: slope: y = stability %, x = days; for Stability (%): 10% mannitol
# Protocol: The stability of the peptide SEQ ID NO: 1 in which the serine at position 10 is phosphorylated and the methionine at position 4 is oxydized (P140(MO)), and the peptide SEQ ID NO: 1 in which the serine at position 10 is phosphorylated (P140) was measured at 37° C., in a solution of 10% (v/v) mannitol. For each peptide, 3 concentrations have been tested: 200, 100 and 50 μg/mL.
# At the indicated time, the integrity of P140 and P140(MO) peptides was measured in saline by high-performance liquid chromatography from the area of the peak corresponding to the intact peptide.
# Stability is measured by using the HPLC peak surface.
# Balb/c mice = assay: 31-day HDM-induced asthma model, airway response to methacholine (Flexivent); assay type: in vivo, mouse; conditions: for Crs / Ers / Rrs: individual mice
# Protocol: The aim of this study was to evaluate the effect of the P140 phosphopeptide administered systemically (intravenously) in a 31-day model of HDM-induced asthma in mice. The P140 phosphopeptide was solubilized in sterile water (Braun) and 10× concentrate sterile saline was added to adjust osmolarity to 300 mosm. Osmolarity was controlled with a micro osmometer (Löser, type 15) and validated (303 mosm). The P140 phosphopeptide was used in vivo at the dose of 4 mg/kg by intravenous (i.v.) routes. Control animals received equivalent volumes (2 ml/kg) of saline (Table 8).
# Nine-week-old male Balb/c mice were sensitized by intranasal (i.n.) administration of HDM extract (Stallergenes): 1 μg in 25 μl saline on days 0, 1, 2, 3, 4, and 10 μg on days 14 and 21. Mice were challenged by i.n. administration of HDM (1 μg) and/or saline on days 28, 29 and 30. Mice were treated by i.v. injection (2 ml/kg) of P140 or solvent on day 25 (see FIG. 14).
# Airway response to Methacholine (Flexivent®). On day 31, airway responses to PBS then methacholine were assessed using a forced oscillation technique (Flexivent®, SCIREQ, Montreal, Canada) as described (Daubeuf et al, Bioprotocol, 645, 2013). Mice were anesthetized with an intraperitoneal injection of xylasine (Rompun®; 1 mg/kg), followed fifteen minutes later by an intraperitoneal injection of pentobarbital sodium (3.64 mg/Kg). The trachea was exposed and an 18-gauge metal needle was inserted into the trachea. Airways were connected to a computer-controlled small animal ventilator, and quasi-sinusoidally ventilated with a tidal volume of 10 ml/Kg at a frequency of 150 breaths/min and a positive end-expiratory pressure of 2 cm H2O to achieve a mean respiratory volume close to that of spontaneous breathing. After baseline measurement, each mouse was challenged for 10 sec with an aerosol of PBS generated with an in-line nebulizer and administered directly through the ventilator. Then, aerosolized methacholine (MCh) at 50 mg/ml was administered for 10 sec. The effect of methacholine was calculated as the peak response, i.e. the mean of the three maximal values integrated for calculation of airway resistance (R, cm H20·s·mL^−1), elastance (E, cm H20·mL^−1) and compliance (C, mL·cm H20^−1).
# All mice were sensitized to HDM on days 0, 1, 2, 3, 4, 14, 21, and challenged either with saline ([…]) or HDM (challenge with allergen). Results are presented as means±SEM. Differences between groups were tested for statistical significance using Student's t test for inflammatory cells and a two-way ANOVA followed by Bonferroni post-test for airway responses.
# C57BL/6 mice = assay: K/B×N serum transfer mouse model of rheumatoid arthritis; assay type: in vivo
# Protocol: The TCR transgenic mice expressing the KRN and the MHC class II A^g7 molecule (K/B×N mice) have developed a severe inflammatory arthritis. The administration of serum of these mice to healthy recipient mice causes inflammatory arthritis over a period of about 15 days with a peak ignition around day 7 post-injection.
# Two mouse serum administrations from K/B×N were performed (day 0 and day 2). The injection of serum (100 μl/mouse) is performed by intra-peritoneal (ip) injection in mice C57BL/6 (or B6) for 8 weeks (n=10); untreated mouse (n=10).
# The P140 peptide (100 μg/100 μl; iv retro-orbital) was administered as follows:
# Curative treatment: Injection at day 1 and day 4, to guide the peak of inflammatory disease. Preventive treatment: Injection at day −7 and day −2. Bleeding S0 (at day 0) is followed by bloodletting conducted every six days to dispose of serum. The study ends when inflammation has returned to its basal level, to around day 20 (see FIG. 21).
# During the peak of inflammation, every day the animals are evaluated, and swelling score of articulation is established. It is ranged from 0 to 4 and based on a joint observation of the animal. In practice, this score is given for each leg (4 values) and these values are added together to get a general score that ranges from 0 to 16 (FIG. 22).
# [2] = HDM-challenged (HDM + P140), first of two unheaded values (presumably PBS)
# [3] = HDM-challenged (HDM + P140), second of two unheaded values (presumably MCh 50 mg/mL)
# [4] = chronic asthma (saline-challenged), methacholine 50 mg/ml, P140 i.v. 4 mg/kg day 25
# [5] = saline-challenged (chronic asthma), first of two unheaded values (presumably PBS)
# [6] = saline-challenged (chronic asthma), second of two unheaded values (presumably MCh 50 mg/mL)
compound,measurement,setting,value
CCC(C)[C@H](NC(=O)[C@H](Cc1ccccc1)NC(=O)[C@H](C)NC(=O)[C@H](Cc1ccc(O)cc1)NC(=O)CNC(=O)[C@H](CCCNC(=N)N)NC(=O)[C@@H]1CCCN1C(=O)[C@H](CCCCN)NC(=O)CNC(=O)[C@H](COP(=O)(O)O)NC(=O)[C@H](CCCNC(=N)N)NC(=O)[C@H](CCCCN)NC(=O)[C@H](CO)NC(=O)[C@H](Cc1ccc(O)cc1)NC(=O)[C@@H](NC(=O)[C@H](CCSC)NC(=N)[C@H](Cc1c[nH]cn1)NC(=O)[C@@H](NC(=O)[C@@H](N)CCCNC(=N)N)C(C)CC)C(C)C)C(=O)N[C@@H](CCC(=O)O)C(=O)N[C@@H](Cc1ccc(O)cc1)C(=O)O (some centres unmarked) [Compound P140] (H-R[Ile(3ξ)][X1]VYSKR[pS]GKPRGYAF[Ile(3ξ)]EY-OH),Stability (%) Linear equation: intercept,[1]; 50 μg/mL,98.299
same,95% of stability (predicted),[1]; 50 μg/mL,1 months
same,Stability (%) Linear equation: slope,[1]; 50 μg/mL,y = −0.099x +
same,Stability (%) Linear equation: intercept,[1]; 100 μg/mL,99.25
same,95% of stability (predicted),[1]; 100 μg/mL,2 months
same,Stability (%) Linear equation: slope,[1]; 100 μg/mL,y = −0.0612x +
same,Stability (%) Linear equation: intercept,[1]; 200 μg/mL,99.535
same,95% of stability (predicted),[1]; 200 μg/mL,6 months
same,Stability (%) Linear equation: slope,[1]; 200 μg/mL,y = −0.0238x +
same,Stability (%),"[1]; 50 μg/mL, day 0",100%
same,Stability (%),"[1]; 50 μg/mL, day 20",95.5%
same,Stability (%),"[1]; 50 μg/mL, day 40",93.2%
same,Stability (%),"[1]; 50 μg/mL, day 60",91.5%
same,Stability (%),"[1]; 50 μg/mL, day 80",90.3%
same,Stability (%),"[1]; 50 μg/mL, day 100",89.6%
same,Stability (%),"[1]; 100 μg/mL, day 0",100%
same,Stability (%),"[1]; 100 μg/mL, day 20",97.5%
same,Stability (%),"[1]; 100 μg/mL, day 40",96.2%
same,Stability (%),"[1]; 100 μg/mL, day 60",95.5%
same,Stability (%),"[1]; 100 μg/mL, day 80",94.5%
same,Stability (%),"[1]; 100 μg/mL, day 100",93.4%
same,Stability (%),"[1]; 200 μg/mL, day 0",100%
same,Stability (%),"[1]; 200 μg/mL, day 20",98.7%
same,Stability (%),"[1]; 200 μg/mL, day 40",98.5%
same,Stability (%),"[1]; 200 μg/mL, day 60",97.9%
same,Stability (%),"[1]; 200 μg/mL, day 80",97.6%
same,Stability (%),"[1]; 200 μg/mL, day 100",97.4%
same,Crs,Balb/c mice; [2],0.0554 mL/cmH2O and 0.0514 mL/cmH2O and 0.0528 mL/cmH2O and 0.0566 mL/cmH2O and 0.0492 mL/cmH2O and 0.0458 mL/cmH2O and 0.0552 mL/cmH2O and 0.0589 mL/cmH2O
same,Ers,Balb/c mice; [2],18.0582 cmH2O/mL and 19.4433 cmH2O/mL and 18.9515 cmH2O/mL and 17.6781 cmH2O/mL and 20.3326 cmH2O/mL and 21.8367 cmH2O/mL and 18.1106 cmH2O/mL and 16.9723 cmH2O/mL
same,Rrs,Balb/c mice; [2],0.6405 cmH2O · s/mL and 0.6092 cmH2O · s/mL and 0.7972 cmH2O · s/mL and 0.5185 cmH2O · s/mL and 0.6804 cmH2O · s/mL and 0.6365 cmH2O · s/mL and 0.4744 cmH2O · s/mL and 0.5456 cmH2O · s/mL
same,Crs,Balb/c mice; [3],0.0146 mL/cmH2O and 0.0075 mL/cmH2O and 0.0062 mL/cmH2O and 0.0065 mL/cmH2O and 0.0101 mL/cmH2O and 0.0060 mL/cmH2O and 0.0138 mL/cmH2O and 0.0081 mL/cmH2O
same,Ers,Balb/c mice; [3],79.8018 cmH2O/mL and 148.4985 cmH2O/mL and 188.1151 cmH2O/mL and 219.9720 cmH2O/mL and 125.7688 cmH2O/mL and 173.4582 cmH2O/mL and 72.6033 cmH2O/mL and 131.8035 cmH2O/mL
same,Rrs,Balb/c mice; [3],5.6421 cmH2O · s/mL and 10.3886 cmH2O · s/mL and 11.9654 cmH2O · s/mL and 10.5419 cmH2O · s/mL and 8.8810 cmH2O · s/mL and 13.0087 cmH2O · s/mL and 7.0705 cmH2O · s/mL and 9.7688 cmH2O · s/mL
same,"Airway resistance, elastance or compliance","Balb/c mice; allergen (HDM)-challenged mice, vs solvent group",no effect
same,"Airway compliance, change vs solvent group",Balb/c mice; [4],+115%
same,"Elastance, change vs solvent group",Balb/c mice; [4],−65%
same,"Airway resistance, change vs solvent group","Balb/c mice; chronic asthma (saline-challenged), methacholine 50 mg/ml, P140 i.v. 4 mg/kg day 25, non-significant",−42%
same,Crs,Balb/c mice; [5],0.0545 mL/cmH2O and 0.0498 mL/cmH2O and 0.0569 mL/cmH2O and 0.0541 mL/cmH2O and 0.0650 mL/cmH2O
same,Ers,Balb/c mice; [5],18.3671 cmH2O/mL and 20.0811 cmH2O/mL and 17.5777 cmH2O/mL and 18.4893 cmH2O/mL and 15.3975 cmH2O/mL
same,Rrs,Balb/c mice; [5],0.5590 cmH2O · s/mL and 0.8945 cmH2O · s/mL and 0.5926 cmH2O · s/mL and 0.8074 cmH2O · s/mL and 0.4418 cmH2O · s/mL
same,Crs,Balb/c mice; [6],0.0304 mL/cmH2O and 0.0132 mL/cmH2O and 0.0380 mL/cmH2O and 0.0238 mL/cmH2O and 0.0370 mL/cmH2O
same,Ers,Balb/c mice; [6],33.3720 cmH2O/mL and 84.9688 cmH2O/mL and 26.3200 cmH2O/mL and 42.4174 cmH2O/mL and 28.6047 cmH2O/mL
same,Rrs,Balb/c mice; [6],4.1067 cmH2O · s/mL and 9.4002 cmH2O · s/mL and 2.2229 cmH2O · s/mL and 4.0926 cmH2O · s/mL and 2.1844 cmH2O · s/mL
same,"Baseline airway resistance, elastance and compliance after PBS inhalation","Balb/c mice; saline-challenged mice, P140 i.v. 4 mg/kg day 25, vs solvent-treated mice",no effect on any parameter
same,Weight loss,"C57BL/6 mice; curative protocol (P140 day 1 and day 4), from day 2",15%
same,Weight gain,"C57BL/6 mice; curative protocol, between day 5 and the end of the study, controls 5%",20%
same,"Inflammation score per leg, maximum","C57BL/6 mice; curative protocol, rear legs",~1.5
same,Weight loss,"C57BL/6 mice; preventive protocol (P140 day −7 and day −2), day 1 to day 7, controls 10%",5%
same,"Increase in size of joints, right back legs","C57BL/6 mice; preventive protocol, day 0 to day 7, controls about 22%",around 12%
same,"Increase in size of the joint, left hind paws","C57BL/6 mice; preventive protocol, day 0 to day 7, controls about 30%",about 15%
same,"Increase in size of articulation, left front leg","C57BL/6 mice; preventive protocol, controls 45%",20%
same,Swelling in the joints of right front leg,"C57BL/6 mice; preventive protocol, controls nearly 45%",+20%
same,"General inflammation score, maximum","C57BL/6 mice; preventive protocol, sum of four legs, controls around 7 (printed day 7)",≤ 5
